Assay results reported in article PMC7759869 (Biomedicines, 2020).
Read-outs that look alike come from different tables or passages of the source. Marks after values point to notes of the source that are not given here.

What was measured:
[1] = target: cabozantinib oxidation in pooled human liver microsomes (Homo sapiens, UniProt P08684); assay: Inhibition study: effect of CYP inhibitors on cabozantinib oxidation in pooled human liver microsomes; settings: pooled human liver microsomes, 50 µM cabozantinib
Experimental: (§1) Inhibition studies in pooled human liver microsomes were conducted with six inhibitors. […] The IC50 values for employed inhibitors were determined by the procedure described previously. […] Then, mixtures were incubated for a further 20 min at 37 °C.

[2] = tested on: human liver microsomes; assay: Correlation of CYP- and FMO-linked catalytic activities with amounts of cabozantinib metabolites formed in microsomes; format: in vitro ADME; settings: twelve human microsomal samples; for Correlation coefficient (r) with CYP2C19 activity: (S)-Mephenytoin-4′-hydroxylase; for Correlation coefficient (r) with CYP2B6 activity: (S)-Mephenytoin-N-demethylase; for Correlation coefficient (r) with CYP2D6 activity: Buferalol-1′-hydroxylase; for Correlation coefficient (r) with CYP2E1 activity: Chlorzoxazone-6-hydroxylase; for Correlation coefficient (r) with CYP2A6 activity: Coumarine-7-hydroxylase; for Correlation coefficient (r) with CYP2C9 activity: Diclofenac-4′-hydroxylase; for Correlation coefficient (r) with CYP4A11 activity: Lauric acid-12-hydroxylase; for Correlation coefficient (r) with FMO activity: Methyl-p-tolyl sulfide oxidase; for Correlation coefficient (r) with CYP2C8 activity: Paclitaxel-6α-hydroxylase; for Correlation coefficient (r) with CYP1A2 activity: Phenacetin-O-deethylase; for Correlation coefficient (r) with Total CYPs: amount of metabolite formed vs total CYP content
Experimental: Data are expressed as mean ± SD. Data were analyzed using GraphPad Prism 7 (San Diego, CA, USA) using ANOVA with post-hoc Tukey HSD Test. All p-values are two-tailed and considered significant at the 0.05 level. […] Correlation coefficients (r) were based on a sample size of twelve for human microsomes. All p-values are two-tailed and considered significant at the 0.05 level.
To clarify these correlations, multivariate analysis was used to investigate the dependence of metabolite formation on these CYP activities. Activities of CYP2A6, -2B6 and -2C8 in each microsomal sample were combined in pairs with the activities of CYP3A4 to see if any combination of the activities led to an improvement in the correlation with CYP3A4.

[3] = target: CYP3A4 (Homo sapiens, UniProt P08684); assay: Kinetics of cabozantinib oxidation by recombinant CYP3A4 (Supersomes); format: in vitro ADME; parameters: purchased Corning (Corning, NY, USA); host or cells: insect cells (baculovirus); settings: formation of the metabolite from cabozantinib by CYP3A4 without cyt b5
Excerpt: Cabozantinib was from MedChemExpress (Monmouth Junction, NJ, USA). Standard of cabozantinib N-oxide was purchased from Toronto Research Chemicals (Toronto, Canada). Ketoconazole, NADPH and other chemicals were all purchased from Merck (Darnstadt, Germany). The purity of all chemicals met the standards of American Chemical Society, unless otherwise noted. Male human hepatic microsomes (pooled sample) (sample LOT: 3043885) were from Gentest Corp. (Woburn, MA, USA). Microsomes from livers of twelve human donors were obtained from Gentest Corp. (Woburn, MA, USA) (Lot. no. HG43-1, HG103, HG74, HG93, HG24, HG27, HG23, HG32, HK31, HK34, HG03 and HG42). Each human microsomal sample was characterized for CYP, FMO, total protein contents and specific CYP activities by Gentest Corp. and reanalyzed by us by assays described in the protocols of Gentest Corp. Our data were similar to those reported by Gentest Corp. (Table 1). Human recombinant enzymes were used in the forms of Supersomes™ and obtained from Corning (Corning, NY, USA). In Supersomes™, microsomal fractions were isolated from insect cells that were transfected with baculovirus constructs containing cDNA of human CYP enzymes (CYP1A1/2, 1B1, 2A6, 2B6, 2C8/9/18/19/, 2D6, 2E1, 3A4). The Supersomes™ also express NADPH:CYP oxidoreductase (POR). […]

[4] = target: T1, CYP3A4 + cyt b5 (Homo sapiens, UniProt P08684); assay: Cabozantinib oxidation by recombinant CYP3A4 in the presence of cyt b5 (Supersomes); format: in vitro ADME; settings: for VMax: formation of the metabolite from cabozantinib by CYP3A4 + cyt b5
T1 construct: purchased Corning (Corning, NY, USA); host or cells: insect cells (baculovirus)
Excerpt: (§2) Cabozantinib was from MedChemExpress (Monmouth Junction, NJ, USA). Standard of cabozantinib N-oxide was purchased from Toronto Research Chemicals (Toronto, Canada). Ketoconazole, NADPH and other chemicals were all purchased from Merck (Darnstadt, Germany). The purity of all chemicals met the standards of American Chemical Society, unless otherwise noted. Male human hepatic microsomes (pooled sample) (sample LOT: 3043885) were from Gentest Corp. (Woburn, MA, USA). Microsomes from livers of twelve human donors were obtained from Gentest Corp. (Woburn, MA, USA) (Lot. no. HG43-1, HG103, HG74, HG93, HG24, HG27, HG23, HG32, HK31, HK34, HG03 and HG42). Each human microsomal sample was characterized for CYP, FMO, total protein contents and specific CYP activities by Gentest Corp. and reanalyzed by us by assays described in the protocols of Gentest Corp. Our data were similar to those reported by Gentest Corp. (Table 1). Human recombinant enzymes were used in the forms of Supersomes™ and obtained from Corning (Corning, NY, USA). In Supersomes™, microsomal fractions were isolated from insect cells that were transfected with baculovirus constructs containing cDNA of human CYP enzymes (CYP1A1/2, 1B1, 2A6, 2B6, 2C8/9/18/19/, 2D6, 2E1, 3A4). The Supersomes™ also express NADPH:CYP oxidoreductase (POR). However, because they are microsomes (particles of broken endoplasmic reticulum), other enzymes (proteins) of the endoplasmic reticulum membrane (like NADH:cytochrome b5 reductase and cytochrome b5) are also expressed at basal levels in these Supersomes™. We also utilized Supersomes™, which overexpressed cytochrome b5, in a molar ratio of CYP to cytochrome b5 of 1 to 5. In Supersomes™, where cytochrome b5 was not overexpressed (see above), pure cytochrome b5 was added to reach a molar ratio of CYP to cytochrome b5 of 1 to 5. Reconstitution of Supersomes™ with purified cytochrome b5 was performed as described previously. Human recombinant FMOs and AO were also used in the forms of Supersomes™ (Gentest Corp., Woburn, MA, USA). These microsomal fractions were isolated from insect cells that are transfected with baculovirus constructs containing cDNA of human FMO1, FMO3, FMO5 or AO enzymes.
(§3) The reaction was initiated by adding NADPH. In control incubations, either microsomes or CYP (FMO, AO) or NADPH were omitted. […] The reaction was stopped by extraction with ethyl acetate (2 × 1 mL). […] Cabozantinib metabolites separated by HPLC were characterized by mass spectroscopy (see further details below).

[5] = tested on: human liver microsomes; assay: Oxidation of cabozantinib by hepatic microsomes of individual human donors (HPLC of metabolites); format: in vitro ADME; settings: 50 µM cabozantinib, 20 min
[6] = tested on: human liver microsomes; assay: as above; format: in vitro ADME; settings: 50 µM cabozantinib, 20 min; remark: listed apart in the source
Excerpt: as §2, §3

[7] = tested on: CYPs in human liver; assay: Contributions of CYP enzymes to formation of cabozantinib metabolites in human livers; format: in vitro ADME; settings: calculated from velocities with cyt b5 and CYP expression levels in human liver
[8] = tested on: VEGFR2; settings: read-out: IC50 for VEGFR2; estimated; cited from earlier work
[9] = tested on: RET; settings: estimated; cited from earlier work
[10] = tested on: MET; settings: read-out: IC50 for MET; estimated; cited from earlier work
[11] = target: CYP3A (cabozantinib oxidation: formation of monohydroxy cabozantinib) (Homo sapiens, UniProt P08684); assay: Inhibition study: effect of CYP inhibitors on cabozantinib oxidation in pooled human liver microsomes; settings: human
Experimental: as §1

[12] = target: CYP3A (cabozantinib oxidation: formation of desmethyl cabozantinib) (Homo sapiens, UniProt P08684); assay: as above; settings: human
Experimental: as §1

[13] = target: CYP3A (cabozantinib oxidation: formation of cabozantinib N-oxide) (Homo sapiens, UniProt P08684); assay: as above; settings: human
Experimental: as §1

[14] = human liver microsomes sample HK23
[15] = human liver microsomes sample HK27
[16] = human liver microsomes sample HG03
[17] = human liver microsomes sample HG24
[18] = human liver microsomes sample HG32
[19] = human liver microsomes sample HG42
[20] = human liver microsomes sample HG43
[21] = human liver microsomes sample HG74
[22] = human liver microsomes sample HG93
[23] = human liver microsomes sample HG103
[24] = human liver microsomes sample HK31
[25] = human liver microsomes sample HK34

Sequence of cabozantinib oxidation in pooled human liver microsomes (P08684 2-503): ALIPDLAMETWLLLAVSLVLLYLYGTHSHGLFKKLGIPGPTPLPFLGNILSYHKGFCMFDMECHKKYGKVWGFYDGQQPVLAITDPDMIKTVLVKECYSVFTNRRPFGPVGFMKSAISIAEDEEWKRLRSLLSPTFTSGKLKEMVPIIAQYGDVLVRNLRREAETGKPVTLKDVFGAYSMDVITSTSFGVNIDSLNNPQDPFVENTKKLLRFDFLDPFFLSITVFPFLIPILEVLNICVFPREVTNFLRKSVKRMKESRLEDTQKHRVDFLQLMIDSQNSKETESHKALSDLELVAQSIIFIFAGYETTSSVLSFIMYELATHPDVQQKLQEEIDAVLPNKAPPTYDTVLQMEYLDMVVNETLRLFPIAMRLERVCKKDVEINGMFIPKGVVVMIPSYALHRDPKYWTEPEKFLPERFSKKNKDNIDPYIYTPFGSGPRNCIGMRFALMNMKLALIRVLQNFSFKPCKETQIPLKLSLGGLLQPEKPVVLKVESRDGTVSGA
T1 sequence (P08684 whole entry): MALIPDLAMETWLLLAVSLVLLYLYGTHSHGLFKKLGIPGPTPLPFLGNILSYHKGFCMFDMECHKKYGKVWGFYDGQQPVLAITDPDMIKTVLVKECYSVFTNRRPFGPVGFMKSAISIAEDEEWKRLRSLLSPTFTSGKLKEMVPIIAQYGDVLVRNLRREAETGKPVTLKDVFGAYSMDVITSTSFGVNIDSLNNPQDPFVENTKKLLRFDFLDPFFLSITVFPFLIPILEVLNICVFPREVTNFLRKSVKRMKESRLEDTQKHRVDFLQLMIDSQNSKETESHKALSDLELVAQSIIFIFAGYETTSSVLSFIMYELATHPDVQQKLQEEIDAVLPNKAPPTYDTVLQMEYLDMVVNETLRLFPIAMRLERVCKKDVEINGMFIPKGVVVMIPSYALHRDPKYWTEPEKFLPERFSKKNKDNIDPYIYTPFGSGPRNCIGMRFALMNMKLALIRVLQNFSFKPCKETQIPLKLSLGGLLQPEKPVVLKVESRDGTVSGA
Sequence of CYP3A4 (P08684 whole entry): as above
Sequence of CYP3A (cabozantinib oxidation: formation of cabozantinib N-oxide) (P08684 2-503): as the sequence (P08684 2-503) above
Sequence of CYP3A (cabozantinib oxidation: formation of desmethyl cabozantinib) (P08684 2-503): as above
Sequence of CYP3A (cabozantinib oxidation: formation of monohydroxy cabozantinib) (P08684 2-503): as above

Row | Compound | Correlation coefficient (r) with CYP2C19 activity [2] | Correlation coefficient (r) with CYP2B6 activity [2] | Correlation coefficient (r) with CYP2D6 activity [2] | Correlation coefficient (r) with CYP2E1 activity [2] | Correlation coefficient (r) with CYP2A6 activity [2] | Correlation coefficient (r) with CYP2C9 activity [2] | Correlation coefficient (r) with CYP4A11 activity [2] | Correlation coefficient (r) with FMO activity [2] | Correlation coefficient (r) with CYP2C8 activity [2] | Correlation coefficient (r) with CYP1A2 activity [2] | Correlation coefficient (r) with Total CYPs [2] | VMax [3] | VMax [4] | Amounts of cabozantinib metabolites [5, 14] | Amounts of cabozantinib metabolites [5, 15] | Amounts of cabozantinib metabolites [6, 16] | Amounts of cabozantinib metabolites [6, 17] | Amounts of cabozantinib metabolites [6, 18] | Amounts of cabozantinib metabolites [6, 19] | Amounts of cabozantinib metabolites [6, 20] | also measured
1 | Cc1ccc(-c2c(-c3nn(C)c4ncnc(N5CC[C@H](N6CCCCC6)C5)c34)cnn2C)cc1 [CYP3cide] |  |  |  |  |  |  |  |  |  |  |  |  |  |  |  |  |  |  |  |  | IC50 ([1]; read-out: IC50 for inhibition of formation of cabozantinib N-oxide): < 10 nM; IC50 ([1]; read-out: IC50 for inhibition of formation of desmethyl cabozantinib): < 10 nM; IC50 ([1]; read-out: IC50 for inhibition of formation of monohydroxy cabozantinib): 1120 nM
2 | COc1cc2c(Oc3ccc(NC(=O)C4(C(=O)Nc5ccc(F)cc5)CC4)cc3)ccnc2cc1O [M2, desmethyl cabozantinib] | 0.033 | 0.695 * | −0.015 | 0.140 | 0.841 *** | 0.086 | 0.193 | 0.315 | 0.654 * | 0.280 | 0.794 ** | 1.44 ± 0.03 peak area/min/nmol CYP | 5.70 ± 0.24 peak area/min/nmol CYP | 0.130 peak area/incubation time | 0.467 peak area/incubation time | 0.335 peak area/incubation time | 0.149 peak area/incubation time | 0.185 peak area/incubation time | 0.329 peak area/incubation time | 0.625 peak area/incubation time | Amounts of cabozantinib metabolites [6, 21]: 0.256 peak area/incubation time; Amounts of cabozantinib metabolites [6, 22]: 0.371 peak area/incubation time; Amounts of cabozantinib metabolites [6, 23]: 0.144 peak area/incubation time; Amounts of cabozantinib metabolites [6, 24]: 0.377 peak area/incubation time; Amounts of cabozantinib metabolites [6, 25]: 0.305 peak area/incubation time; Contribution of CYPs other than CYP3A4 to formation of the metabolite in human liver [7]: less than 1%
3 | COc1cc2c(Oc3ccc(NC(=O)C4(C(=O)Nc5ccc(F)cc5)CC4)cc3)cc[n+]([O-])c2cc1OC [M3, cabozantinib N-oxide] | −0.021 | 0.776 ** | −0.043 | 0.030 | 0.728 ** | 0.130 | 0.223 | 0.341 | 0.737 ** | 0.216 | 0.811 ** | 1.54 ± 0.04 peak area/min/nmol CYP | 9.96 ± 0.92 peak area/min/nmol CYP | 0.607 peak area/incubation time | 2.228 peak area/incubation time | 1.672 peak area/incubation time | 0.752 peak area/incubation time | 1.338 peak area/incubation time | 1.609 peak area/incubation time | 3.491 peak area/incubation time | IC50 [8]: 140 nM; IC50 [9]: > 1000 nM; Increase of oxidation / metabolite formation by co-expression of cyt b5 with CYP3A4 ([4]; Supersomes with cyt b5 vs without, 50 µM cabozantinib): 4.6 fold; IC50 [10]: 190 nM; Amounts of cabozantinib metabolites [6, 21]: 1.106 peak area/incubation time; Amounts of cabozantinib metabolites [6, 22]: 1.935 peak area/incubation time; Amounts of cabozantinib metabolites [6, 23]: 0.644 peak area/incubation time; Amounts of cabozantinib metabolites [6, 24]: 1.537 peak area/incubation time; Amounts of cabozantinib metabolites [6, 25]: 1.359 peak area/incubation time; Contribution of CYPs other than CYP3A4 to formation of the metabolite in human liver [7]: less than 1%
4 | CC(=O)N1CCN(c2ccc(OCC3COC(Cn4ccnc4)(c4ccc(Cl)cc4Cl)O3)cc2)CC1 (centres unmarked) [ketoconazole] |  |  |  |  |  |  |  |  |  |  |  |  |  |  |  |  |  |  |  |  | IC50 at 20 min [11]: < 10 nM; IC50 at 20 min [12]: < 10 nM; IC50 at 20 min [13]: < 10 nM
